From patent US11192891B2, “Diazaspiro ROCK inhibitors” (BRISTOL-MYERS SQUIBB COMPANY, priority 2017, dated 2021)

Molecular target: ROCK2 (Homo sapiens, UniProt O75116)
Experiment: ROCK kinase inhibition assay, FITC peptide substrate, LABCHIP 3000 readout
Assay type: biochemical
Conditions: 5 μM ATP, 1.5 μM peptide substrate
Outline: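 Tested across a concentration range, with percent inhibition of kinase activity derived per concentration. Peptide phosphorylation, initiated by adding the Rho kinase variant (final DMSO <2%), was quenched with EDTA and substrate/product resolved by mobility shift.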

ROCK2, sequence (O75116 whole entry, species assumed): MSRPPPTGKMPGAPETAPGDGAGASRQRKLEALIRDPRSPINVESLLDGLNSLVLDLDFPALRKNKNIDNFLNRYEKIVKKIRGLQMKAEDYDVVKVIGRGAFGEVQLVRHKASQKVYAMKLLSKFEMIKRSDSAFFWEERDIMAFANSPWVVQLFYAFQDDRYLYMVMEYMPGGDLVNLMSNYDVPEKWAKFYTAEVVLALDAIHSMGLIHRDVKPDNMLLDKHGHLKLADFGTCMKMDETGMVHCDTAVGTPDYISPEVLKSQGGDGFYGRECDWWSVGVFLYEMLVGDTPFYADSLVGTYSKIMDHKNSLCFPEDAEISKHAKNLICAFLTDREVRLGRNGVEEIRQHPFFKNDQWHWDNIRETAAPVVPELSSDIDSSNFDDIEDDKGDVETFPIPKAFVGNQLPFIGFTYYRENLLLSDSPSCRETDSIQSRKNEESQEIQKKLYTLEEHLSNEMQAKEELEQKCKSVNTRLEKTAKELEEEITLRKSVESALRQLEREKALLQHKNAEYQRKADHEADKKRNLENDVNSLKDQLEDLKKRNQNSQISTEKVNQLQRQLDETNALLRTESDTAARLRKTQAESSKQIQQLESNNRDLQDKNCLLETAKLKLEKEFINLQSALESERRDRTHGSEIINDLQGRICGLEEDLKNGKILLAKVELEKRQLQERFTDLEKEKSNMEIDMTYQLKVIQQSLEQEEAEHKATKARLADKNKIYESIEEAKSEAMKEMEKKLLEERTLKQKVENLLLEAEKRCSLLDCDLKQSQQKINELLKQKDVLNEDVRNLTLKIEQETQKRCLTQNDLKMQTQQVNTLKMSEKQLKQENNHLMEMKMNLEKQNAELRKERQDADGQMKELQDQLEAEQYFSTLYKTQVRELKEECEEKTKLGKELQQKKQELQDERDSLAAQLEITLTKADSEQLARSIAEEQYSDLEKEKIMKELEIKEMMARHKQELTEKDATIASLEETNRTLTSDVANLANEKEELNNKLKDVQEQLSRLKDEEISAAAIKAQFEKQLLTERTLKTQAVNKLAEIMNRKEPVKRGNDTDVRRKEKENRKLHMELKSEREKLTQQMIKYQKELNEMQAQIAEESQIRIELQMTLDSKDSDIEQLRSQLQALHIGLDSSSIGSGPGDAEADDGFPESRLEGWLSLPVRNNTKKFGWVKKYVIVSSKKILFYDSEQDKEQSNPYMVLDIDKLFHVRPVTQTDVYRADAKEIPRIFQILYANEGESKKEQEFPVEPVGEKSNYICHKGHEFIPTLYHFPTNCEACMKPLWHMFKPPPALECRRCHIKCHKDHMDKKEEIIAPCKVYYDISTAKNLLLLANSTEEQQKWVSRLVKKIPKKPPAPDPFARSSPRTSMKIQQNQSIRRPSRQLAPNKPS

| SMILES | IC50 [nM] | EC50 [nM] |
| --- | --- | --- |
| COc1cc(N2CCC3(CCN(C(=O)c4ccc(F)c(C)c4)CC3)C2=O)ccc1-c1cn[nH]c1 [Example 103, 8-(4-fluoro-3-methylbenzoyl)-2-[3-methoxy-4-(1H-pyrazol-4-yl)phenyl]-2,8-diazaspiro[4.5]decan-1-one] | 96 | – |
| COc1cc(N2CCC3(CCN(C(=O)c4cccnc4)CC3)C2=O)ccc1-c1cn[nH]c1 [Example 73, 2-[3-methoxy-4-(1H-pyrazol-4-yl)phenyl]-8-(pyridine-3-carbonyl)-2,8-diazaspiro[4.5]decan-1-one] | 414 | – |
| COC(=O)c1ccc(S(=O)(=O)N2CCC3(CCN(c4ccc(-c5cn[nH]c5)c(OC)c4)C3=O)CC2)o1 [Example 208, methyl 5-({2-[3-methoxy-4-(1H-pyrazol-4-yl)phenyl]-1-oxo-2,8-diazaspiro[4.5]decan-8-yl}sulfonyl)furan-2-carboxylate] | 2070 | – |
| COc1cc(N2CCC3(CCN(C(=O)c4cc(C)cs4)CC3)C2=O)ccc1-c1cn[nH]c1 [Example 82, 2-[3-methoxy-4-(1H-pyrazol-4-yl)phenyl]-8-(4-methylthiophene-2-carbonyl)-2,8-diazaspiro[4.5]decan-1-one] | 109 | – |
| CN1CCN(c2ccc(C(=O)N3CCC4(CC3)CCN(c3ccc(-c5ccc6nn[nH]c6c5)cc3)C4=O)cc2)CC1 [Example 38, 2-[4-(1H-1,2,3-benzotriazol-6-yl)phenyl]-8-[4-(4-methylpiperazin-1-yl)benzoyl]-2,8-diazaspiro[4.5]decan-1-one] | 116 | – |
| COc1cc(N2CCC3(CCN(C(=O)c4ccc(-c5noc(C(C)C)n5)cc4)CC3)C2=O)ccc1-c1cn[nH]c1 [Example 134, 2-[3-methoxy-4-(1H-pyrazol-4-yl)phenyl]-8-{4-[5-(propan-2-yl)-1,2,4-oxadiazol-3-yl]benzoyl}-2,8-diazaspiro[4.5]decan-1-one] | 75 | – |
| COc1cc(N2CCC3(CCN(C(=O)c4csc(-c5cccnc5)n4)CC3)C2=O)ccc1-c1cn[nH]c1 [Example 78, 2-[3-methoxy-4-(1H-pyrazol-4-yl)phenyl]-8-[2-(pyridin-3-yl)-1,3-thiazole-4-carbonyl]-2,8-diazaspiro[4.5]decan-1-one] | 76 | – |
| COc1cc(N2CCC3(CCN(C(=O)c4ccc(N5CCN(Cc6cnc7ccccc7n6)CC5)cc4)CC3)C2=O)ccc1-c1cn[nH]c1 [Example 219, 2-[3-methoxy-4-(1H-pyrazol-4-yl)phenyl]-8-(4-{4-[(quinoxalin-2-yl)methyl]piperazin-1-yl}benzoyl)-2,8-diazaspiro[4.5]decan-1-one] | 1.9 | – |
| O=C1N(c2ccc(-c3cn[nH]c3)cc2)CCC12CCN(S(=O)(=O)c1ccccc1)C2 (centres unmarked) [Example 46, 7-(benzenesulfonyl)-2-[4-(1H-pyrazol-4-yl)phenyl]-2,7-diazaspiro[4.4]nonan-1-one] | 750 | – |
| COc1cc(N2CCC3(CCN(C(=O)C4Cc5ccccc5O4)CC3)C2=O)ccc1-c1cn[nH]c1 (centres unmarked) [Example 102, 8-(2,3-dihydro-1-benzofuran-2-carbonyl)-2-[3-methoxy-4-(1H-pyrazol-4-yl)phenyl]-2,8-diazaspiro[4.5]decan-1-one] | 1970 | – |
| O=C1N(c2ccc(-c3cn[nH]c3)cc2)CCC12CCN(S(=O)(=O)c1ccccc1)CC2 [Example 2, 8-(benzenesulfonyl)-2-[4-(1H-pyrazol-4-yl)phenyl]-2,8-diazaspiro[4.5]decan-1-one] | 330 | – |
| COc1cc(N2CCC3(CCN(C(=O)c4ccc(Oc5ccccc5)cc4)CC3)C2=O)ccc1-c1cn[nH]c1 [Example 60, 2-[3-methoxy-4-(1H-pyrazol-4-yl)phenyl]-8-(4-phenoxybenzoyl)-2,8-diazapsiro[4.5]decan-1-one] | 54 | – |
| COc1cc(N2CCC3(CCN(C(=O)c4cc[n+]([O-])cc4)CC3)C2=O)ccc1-c1cn[nH]c1 [Example 96, 4-{2-[3-methoxy-4-(1H-pyrazol-4-yl)phenyl]-1-oxo-2,8-diazaspiro[4.5]decane-8-carbonyl}pyridin-1-ium-1-olate] | 1100 | – |
| COc1cc(N2CCC3(CCN(C(=O)c4ccc(N5CCN(C(C)C)CC5)cc4)CC3)C2=O)ccc1-c1cn[nH]c1 [Example 233, 2-[3-methoxy-4-(1H-pyrazol-4-yl)phenyl]-8-{4-[4-(propan-2-yl)piperazin-1-yl]benzoyl}-2,8-diazaspiro[4.5]decan-1-one] | 0.2 | – |
| COc1cccc(S(=O)(=O)N2CCC3(CCN(c4ccc(-c5cn[nH]c5)c(OC)c4)C3=O)CC2)c1 [Example 207, 2-[3-methoxy-4-(1H-pyrazol-4-yl)phenyl]-8-(3-methoxybenzenesulfonyl)-2,8-diazaspiro[4.5]decan-1-one] | 266 | – |
| COc1cc(N2CCC3(CCN(C(=O)c4ccc(N5CCN(C(C)CN(C)C)CC5)cc4)CC3)C2=O)ccc1-c1cn[nH]c1 (centres unmarked) [Example 232, 8-(4-{4-[1-(dimethylamino)propan-2-yl]piperazin-1-yl}benzoyl)-2-[3-methoxy-4-(1H-pyrazol-4-yl)phenyl]-2,8-diazaspiro[4.5]decan-1-one] | 3.1 | – |
| COc1cc(N2CCC3(CCN(C(=O)c4ccc(N5CCN(Cc6cccn6C)CC5)cc4)CC3)C2=O)ccc1-c1cn[nH]c1 [Example 228, 2-[3-methoxy-4-(1H-pyrazol-4-yl)phenyl]-8-(4-{4-[(1-methyl-1H-pyrrol-2-yl)methyl]piperazin-1-yl}benzoyl)-2,8-diazaspiro[4.5]decan-1-one] | 0.9 | – |
| COc1cc(N2CCC3(CCN(C(=O)c4ccc(C)nc4)CC3)C2=O)ccc1-c1cn[nH]c1 [Example 72, 2-[3-methoxy-4-(1H-pyrazol-4-yl)phenyl]-8-(6-methylpyridine-3-carbonyl)-2,8-diazaspiro[4.5]decan-1-one] | 219 | – |
| COc1cc(N2CCC3(CCN(C(=O)c4ccc(-n5ccncc5=O)cc4F)CC3)C2=O)ccc1-c1cn[nH]c1 [Example 136, 8-[2-fluoro-4-(2-oxo-1,2-dihydropyrazin-1-yl)benzoyl]-2-[3-methoxy-4-(1H-pyrazol-4-yl)phenyl]-2,8-diazaspiro[4.5]decan-1-one] | 4.2 | – |

Other lines, results leading:

| IC50 [nM] | EC50 [nM] | SMILES |
| --- | --- | --- |
| 12 | – | COc1cc(N2CCC3(CCN(C(=O)c4ccc(N5CC(=O)NC5=O)cc4)CC3)C2=O)ccc1-c1cn[nH]c1 [Example 147, 1-(4-{2-[3-methoxy-4-(1H-pyrazol-4-yl)phenyl]-1-oxo-2,8-diazaspiro[4.5]decane-8-carbonyl}phenyl)imidazolidine-2,4-dione] |
| 186 | – | COc1ccc2c(OC)ccc(C(=O)N3CCC4(CC3)CCN(c3ccc(-c5cn[nH]c5)c(OC)c3)C4=O)c2c1 [Example 199, 8-(4,7-dimethoxynaphthalene-1-carbonyl)-2-[3-methoxy-4-(1H-pyrazol-4-yl)phenyl]-2,8-diazaspiro[4.5]decan-1-one] |
| 0.7 | – | CN1CCN(c2ccc(C(=O)N3CCC4(CC3)CCN(c3ccc(-c5cn[nH]c5)cc3)C4=O)cc2)CC1 [Example 31, 8-[4-(4-methylpiperazin-1-yl)benzoyl]-2-[4-(1H-pyrazol-4-yl)phenyl]-2,8-diazaspiro[4.5]decan-1-one] |
| – | 16 | COc1ccc(C(=O)N2CCC3(CC2)CCN(c2ccc(-c4cn[nH]c4)cc2)C3=O)cc1F [Example 11, 8-(3-fluoro-4-methoxybenzoyl)-2-[4-(1H-pyrazol-4-yl)phenyl]-2,8-diazaspiro[4.5]decan-1-one] |
| 1060 | – | COc1cc(N2CCC3(CCN(C(=O)c4cnn5cccnc45)CC3)C2=O)ccc1-c1cn[nH]c1 [Example 198, 2-[3-methoxy-4-(1H-pyrazol-4-yl)phenyl]-8-{pyrazolo[1,5-a]pyrimidine-3-carbonyl}-2,8-diazaspiro[4.5]decan-1-one] |
| 143 | – | Cn1nc(C(=O)N2CCC3(CC2)CCN(c2ccc(-c4cn[nH]c4)cc2)C3=O)c2ccccc21 [Example 6, 8-(1-methyl-1H-indazole-3-carbonyl)-2-[4-(1H-pyrazol-4-yl)phenyl]-2,8-diazaspiro[4.5]decan-1-one] |
| 843 | – | COc1cc(N2CCC3(CCN(S(=O)(=O)c4ccc(S(C)(=O)=O)cc4)CC3)C2=O)ccc1-c1cn[nH]c1 [Example 218, 8-(4-methanesulfonylbenzenesulfonyl)-2-[3-methoxy-4-(1H-pyrazol-4-yl)phenyl]-2,8-diazaspiro[4.5]decan-1-one] |
| 8 | – | COc1ccc(C(=O)N2CCC3(CC2)CCN(c2ccc(-c4cn[nH]c4)c(OC)c2)C3=O)cc1F [Example 14, 8-(3-fluoro-4-methoxybenzoyl)-2-[3-methoxy-4-(1H-pyrazol-4-yl)phenyl]-2,8-diazaspiro[4.5]decan-1-one] |
| 1 | – | COc1cc(N2CCC3(CCN(C(=O)c4ccc(N5CCN(CCC(F)(F)F)CC5)cc4)CC3)C2=O)ccc1-c1cn[nH]c1 [Example 240, 2-[3-methoxy-4-(1H-pyrazol-4-yl)phenyl]-8-{4-[4-(3,3,3-trifluoropropyl)piperazin-1-yl]benzoyl}-2,8-diazaspiro[4.5]decan-1-one] |
| 78 | – | COc1cc(N2CCC3(CCN(C(=O)c4ccc5c(c4)CC(=O)N5)CC3)C2=O)ccc1-c1cn[nH]c1 [Example 177, 2-[3-methoxy-4-(1H-pyrazol-4-yl)phenyl]-8-(2-oxo-2,3-dihydro-1H-indole-5-carbonyl)-2,8-diazaspiro[4.5]decan-1-one] |
| 31 | – | COc1cc(N2CCC3(CCN(C(=O)c4cc(C)n(C)n4)CC3)C2=O)ccc1-c1cn[nH]c1 [Example 188, 8-(1,5-dimethyl-1H-pyrazole-3-carbonyl)-2-[3-methoxy-4-(1H-pyrazol-4-yl)phenyl]-2,8-diazaspiro[4.5]decan-1-one] |
| 57 | – | COc1cc(N2CCC3(CCN(C(=O)c4cnc5n(c4=O)CCS5)CC3)C2=O)ccc1-c1cn[nH]c1 [Example 81, 2-[3-methoxy-4-(1H-pyrazol-4-yl)phenyl]-8-{5-oxo-2H,3H,5H-[1,3]thiazolo[3,2-a]pyrimidine-6-carbonyl}-2,8-diazaspiro[4.5]decan-1-one] |
| 36 | – | COc1cc(N2CCC3(CCN(C(=O)c4ccc(C(N)=O)cc4)CC3)C2=O)ccc1-c1cn[nH]c1 [Example 23, 4-{2-[3-methoxy-4-(1H-pyrazol-4-yl)phenyl]-1-oxo-2,8-diazaspiro[4.5]decane-8-carbonyl}benzamide] |
